# Measured values taken from US9475808B2, “Inhibitor compounds of phosphodiesterase type 10A” (AbbVie Deutschland GmbH & Co. KG, priority 2013, dated 2016).
# Key:
# [1] = target: PDE10A (UniProt Q9Y233); experiment: Measurement of PDE activity (HTRF cAMP assay, recombinant enzyme); assay type: biochemical; conditions: 20 nM cyclic nucleotide substrate, 60 minutes at 29 C
# Protocol: The recombinant PDE proteins are used in in vitro enzymatic reaction for measurement of PDE activity. These recombinant proteins, including PDE10A (human, rat and mouse PDE10) and isoforms of PDEs 1, 3, 4, and 5, were purchased from commercial vendor BPS Bioscience. The enzymatic activity of PDEs was determined by cAMP measurement kit from CisBio (IBA) using HTRF technology.
# The PDE enzymatic reaction was carried out in assay buffer (20 mM Tris-HCl pH7.5, 10 mM MgCl2, 0.1% bovine serum albumin) containing enzyme and substrate. The PDE enzymes concentration ranged from 10 pM-250 pM, depending on each enzyme's specific activity. The substrate cyclic nucleotide (cAMP or cGMP) concentration used in the assay was 20 nM for PDE10, and 100 nM for other PDEs. The inhibitory effect of compound was determined by incubating various concentration of inhibitor in the enzymatic assay. Typically, compound was serial diluted in DMSO then further diluted in assay buffer. Next, the compound at varying concentration was mixed with PDE enzyme. The reaction was initiated by addition of cyclic nucleotide substrate, and incubated for 60 minutes at 29 C. The reaction was stopped by addition of lysis buffer from assay kit. The cAMP-d2 and anti-cAMP cryptate in the lysis buffer detected the level of cAMP left from the PDE hydrolysis reaction. The PDE activity is reversely correlated with the amount of cAMP left in the reaction and can be converted to the percent activity of an uninhibited control (100%). Thus, IC50 value of inhibitor can be obtained by plotting inhibitor concentration against PDE activity at that concentration.
# [2] = Determination of the microsomal half-life / microsomal clearance, rat liver microsomes; conditions: 0.5 μM test substance, 0.25 mg microsomal protein/ml, pH 7.4, 37° C., NADPH
# Protocol: (§1) The test substances were incubated in a concentration of 0.5 μM as follows:
# (§2) 0.5 μM test substance are preincubated together with liver microsomes from different species (from rat, human or other species) (0.25 mg of microsomal protein/ml) in 0.05 M potassium phosphate buffer of pH 7.4 in microtiter plates at 37° C. for 5 min. The reaction is started by adding NADPH (1 mg/mL). After 0, 5, 10, 15, 20 and 30 min, 50 μl aliquots are removed, and the reaction is immediately stopped and cooled with the same volume of acetonitrile. The samples are frozen until analyzed. The remaining concentration of undegraded test substance is determined by MSMS. The half-life (T½) is determined from the gradient of the signal of test substance/unit time plot, it being possible to calculate the half-life of the test substance, assuming first order kinetics, from the decrease in the concentration of the compound with time. The microsomal clearance (mCl) is calculated from mCl=ln 2/T½/(content of microsomal protein in mg/ml)×1000 [ml/min/mg]
# [3] = Determination of the microsomal half-life / microsomal clearance, human liver microsomes; conditions: 0.5 μM test substance, 0.25 mg microsomal protein/ml, pH 7.4, 37° C., NADPH
# Protocol: as §1, §2
# [4] = test system: rats; conditions: cited from earlier work
# [5] = test system: rats; conditions: cited from earlier work; remark: listed apart in the source
IC50 [1],Rat mCl [2],Human mCl [3],SMILES,catalepsy on its own ([4]; alone),cataleptic effect of the D2 receptor antagonist haloperidol ([4]; with haloperidol),hyperactivity induced by PCP ([5]; PCP-induced),reduction of amphetamine-induced hyperactivity ([5]; amphetamine-induced)
> 500 nM,++ (++: <100 μl min^−1 mg^−1),++ (++: <100 μl min^−1 mg^−1),"Cn1cc2c(c(-c3cccnc3)c1=O)C(=O)N(CCc1ccc3ccccc3n1)C2 [Example 13, 5-Methyl-7-pyridin-3-yl-2-(2-quinolin-2-yl-ethyl)-3,5-dihydro-2H-pyrrolo[3,4-c]pyridine-1,6-dione]",,,,
< 100 nM,+ (+: 100-220 μl min^−1 mg^−1),∘ (∘: >220 μl min^−1 mg^−1),"COc1ccc(Cn2cc3c(c(N4CCOCC4)c2=O)C(=O)N(CCc2ccc4ccccc4n2)C3)cc1 [Example 14, 5-(4-Methoxy-benzyl)-7-morpholin-4-yl-2-(2-quinolin-2-yl-ethyl)-3,5-dihydro-2H-pyrrolo[3,4-c]pyridine-1,6-dione]",,,,
< 100 nM,++ (++: <100 μl min^−1 mg^−1),++ (++: <100 μl min^−1 mg^−1),"O=C1c2c(c[nH]c(=O)c2N2CCOCC2)CN1CCc1ccc2ccccc2n1 [Example 15, 7-Morpholin-4-yl-2-(2-quinolin-2-yl-ethyl)-3,5-dihydro-2H-pyrrolo[3,4-c]pyridine-1,6-dione]",,,,
< 100 nM,++ (++: <100 μl min^−1 mg^−1),++ (++: <100 μl min^−1 mg^−1),"CCn1cc2c(c(N3CCOCC3)c1=O)C(=O)N(CCc1ccc3ccccc3n1)C2 [Example 16, 5-Ethyl-7-morpholin-4-yl-2-(2-quinolin-2-yl-ethyl)-3,5-dihydro-2H-pyrrolo[3,4-c]pyridine-1,6-dione]",,,,
< 100 nM,++ (++: <100 μl min^−1 mg^−1),++ (++: <100 μl min^−1 mg^−1),"CC(C)n1cc2c(c(N3CCOCC3)c1=O)C(=O)N(CCc1ccc3ccccc3n1)C2 [Example 17, 5-Isopropyl-7-morpholin-4-yl-2-(2-quinolin-2-yl-ethyl)-3,5-dihydro-2H-pyrrolo[3,4-c]pyridine-1,6-dione]",,,,
< 100 nM,++ (++: <100 μl min^−1 mg^−1),++ (++: <100 μl min^−1 mg^−1),"COCCn1cc2c(c(N3CCOCC3)c1=O)C(=O)N(CCc1ccc3ccccc3n1)C2 [Example 18, 5-(2-Methoxy-ethyl)-7-morpholin-4-yl-2-(2-quinolin-2-yl-ethyl)-3,5-dihydro-2H-pyrrolo[3,4-c]pyridine-1,6-dione]",,,,
< 100 nM,+++ (+++ <10 μl min^−1 mg^−1),++ (++: <100 μl min^−1 mg^−1),"O=C1c2c(cn(CCO)c(=O)c2N2CCOCC2)CN1CCc1ccc2ccccc2n1 [Example 19, 5-(2-Hydroxy-ethyl)-7-morpholin-4-yl-2-(2-quinolin-2-yl-ethyl)-3,5-dihydro-2H-pyrrolo[3,4-c]pyridine-1,6-dione]",,,,
< 100 nM,++ (++: <100 μl min^−1 mg^−1),++ (++: <100 μl min^−1 mg^−1),"Cn1cc2c(c(N3CCOCC3)c1=O)C(=O)N(CCc1nc3ccccc3n1C)C2 [Example 20, 5-Methyl-2-[2-(1-methyl-1H-benzoimidazol-2-yl)-ethyl]-7-morpholin-4-yl-3,5-dihydro-2H-pyrrolo[3,4-c]pyridine-1,6-dione]",,,,
200 to 500 nM,++ (++: <100 μl min^−1 mg^−1),++ (++: <100 μl min^−1 mg^−1),"Cn1cc2c(c(-c3cccnc3)c1=O)C(=O)N(CCc1nc3ccccc3n1C)C2 [Example 21, 5-Methyl-2-[2-(1-methyl-1H-benzoimidazol-2-yl)-ethyl]-7-pyridin-3-yl-3,5-dihydro-2H-pyrrolo[3,4-c]pyridine-1,6-dione]",,,,
< 100 nM,++ (++: <100 μl min^−1 mg^−1),+++ (+++ <10 μl min^−1 mg^−1),"Cn1cc2c(c(N3CCOCC3)c1=O)C(=O)N(CCc1cn3ccccc3n1)C2 [Example 22, 2-(2-Imidazo[1,2-a]pyridin-2-yl-ethyl)-5-methyl-7-morpholin-4-yl-3,5-dihydro-2H-pyrrolo[3,4-c]pyridine-1,6-dione]",,,,
> 500 nM,++ (++: <100 μl min^−1 mg^−1),++ (++: <100 μl min^−1 mg^−1),"Cn1cc2c(c(N3CCOCC3)c1=O)C(=O)N(CCc1nc3ccccn3n1)C2 [Example 24, 5-Methyl-7-morpholin-4-yl-2-(2-[1,2,4]triazolo[1,5-a]pyridin-2-yl-ethyl)-3,5-dihydro-2H-pyrrolo[3,4-c]pyridine-1,6-dione]",,,,
> 500 nM,+++ (+++ <10 μl min^−1 mg^−1),+++ (+++ <10 μl min^−1 mg^−1),"Cn1cc2c(c(N3CCOCC3)c1=O)C(=O)N(CCc1nc3n(n1)CCCC3)C2 [Example 25, 5-Methyl-7-morpholin-4-yl-2-[2-(5,6,7,8-tetrahydro-[1,2,4]triazolo[1,5-a]pyridin-2-yl)-ethyl]-3,5-dihydro-2H-pyrrolo[3,4-c]pyridine-1,6-dione]",,,,
> 500 nM,++ (++: <100 μl min^−1 mg^−1),+++ (+++ <10 μl min^−1 mg^−1),"Cn1cc2c(c(-c3cccnc3)c1=O)C(=O)N(CCc1nc3ccccn3n1)C2 [Example 26, 5-Methyl-7-pyridin-3-yl-2-(2-[1,2,4]triazolo[1,5-a]pyridin-2-yl-ethyl)-3,5-dihydro-2H-pyrrolo[3,4-c]pyridine-1,6-dione]",,,,
100 to 200 nM,++ (++: <100 μl min^−1 mg^−1),+++ (+++ <10 μl min^−1 mg^−1),"Cn1cc2c(c(-c3ccc(F)cc3)c1=O)C(=O)N(CCc1ccc3ccccc3n1)C2 [Example 27, 7-(4-Fluoro-phenyl)-5-methyl-2-(2-quinolin-2-yl-ethyl)-3,5-dihydro-2H-pyrrolo[3,4-c]pyridine-1,6-dione]",,,,
100 to 200 nM,++ (++: <100 μl min^−1 mg^−1),++ (++: <100 μl min^−1 mg^−1),"Cn1cc2c(c(-c3cncnc3)c1=O)C(=O)N(CCc1ccc3ccccc3n1)C2 [Example 28, 5-Methyl-7-pyrimidin-5-yl-2-(2-quinolin-2-yl-ethyl)-3,5-dihydro-2H-pyrrolo[3,4-c]pyridine-1,6-dione]",,,,
> 500 nM,++ (++: <100 μl min^−1 mg^−1),+++ (+++ <10 μl min^−1 mg^−1),"Cn1cc2c(c(-c3cn[nH]c3)c1=O)C(=O)N(CCc1ccc3ccccc3n1)C2 [Example 29, 5-Methyl-7-(1H-pyrazol-4-yl)-2-(2-quinolin-2-yl-ethyl)-3,5-dihydro-2H-pyrrolo[3,4-c]pyridine-1,6-dione]",,,,
100 to 200 nM,++ (++: <100 μl min^−1 mg^−1),++ (++: <100 μl min^−1 mg^−1),"COc1ccc(-c2c3c(cn(C)c2=O)CN(CCc2ccc4ccccc4n2)C3=O)cc1 [Example 31, 7-(4-Methoxy-phenyl)-5-methyl-2-(2-quinolin-2-yl-ethyl)-3,5-dihydro-2H-pyrrolo[3,4-c]pyridine-1,6-dione]",,,,
> 500 nM,+++ (+++ <10 μl min^−1 mg^−1),+++ (+++ <10 μl min^−1 mg^−1),"Cn1cc2c(c(-c3ccncc3)c1=O)C(=O)N(CCc1nc3ccccc3s1)C2 [Example 32, 2-[2-(1,3-benzothiazol-2-yl)ethyl]-5-methyl-7-(4-pyridyl)-3,5-dihydro-2H-pyrrolo[3,4-c]pyridine-1,6-dione]",,,,
100 to 200 nM,+++ (+++ <10 μl min^−1 mg^−1),+++ (+++ <10 μl min^−1 mg^−1),"Cn1cc2c(c(N3CCOCC3)c1=O)C(=O)N(CCc1nc3ccccc3s1)C2 [Example 33, 2-[2-(1,3-benzothiazol-2-yl)ethyl]-5-methyl-7-morpholin-4-yl-3,5-dihydro-2H-pyrrolo[3,4-c]pyridine-1,6-dione]",,,,
< 100 nM,++ (++: <100 μl min^−1 mg^−1),++ (++: <100 μl min^−1 mg^−1),"Cn1cc2c(c(N3CCOCC3)c1=O)C(=O)N(CC(F)(F)c1ccc3ccccc3n1)C2 [Example 34, 2-(2,2-Difluoro-2-quinolin-2-yl-ethyl)-5-methyl-7-morpholin-4-yl-3,5-dihydro-2H-pyrrolo[3,4-c]pyridine-1,6-dione]",,,,
,,,"COc1ccc(Cc2nccc3cc(OC)c(OC)cc23)cc1OC [Papaverine, papaverine]",did not cause catalepsy on its own,potentiated the cataleptic effect,reduced hyperactivity,insignificant
